According to patent publication US20220096452A1, “LOCAL ANESTHETIC FOR THE TREATMENT OF NEUROLOGICAL SYMPTOMS RESULTING FROM BRAIN DYSFUNCTIONS” (ICM (INSTITUT DU CERVEAU ET DE LA MOELLE ÉPINIÈRE), priority 2019, published 2022):
Entries after “also recorded” stand apart in the source; their conditions may differ.

What was measured:
Format in all cases: in vivo, human
[1] = system: patient who suffered from almost complete cortical blindness following a bilateral occipital stroke; test: Visual field assessment, full-threshold Humphrey visual field (HVF), 24-2 SITA
Description: Those clinical observations were supported and refined by assessment of the visual field with the full-threshold Humphrey visual field (HVF), 24-2 Swedish Interactive Thresholding Algorithm (SITA) (Carl Zeiss Meditec Inc., Dublin, Calif.).
The same pattern prevailed using Goldmann perimetry.

[2] = system: patient who suffered from almost complete cortical blindness following a bilateral occipital stroke; test: Resting state functional MRI connectivity, on vs off periods
Description: Resting state fMRI is a method of functional magnetic resonance imaging (fMRI) that is used in brain mapping to evaluate regional interactions that occur in a resting or task-negative state, when an explicit task is not being performed. We gathered MRI images while the patient was at rest with their eyes closed, during off and on periods. Those data were analyzed using the CONN toolbox (https://web.conn-toolbox.org/home). We report here two results providing pathophysiological correlates of vision recovery in the patient's right visual hemifield under Mepivacaine.
The left early visual cortex (or calcarine cortex) is the entry gate into the brain of visual information from the right hemifield. […] We predicted that whatever its underlying mechanism, functional recovery implies a restoration of functional communication between the left calcarine cortex and distant cortical areas.
We predicted that the restoration of vision should be accompanied with an overall increase of connectivity between the visual system and the rest of the brain. We computed for each voxel of the brain the average connectivity with the rest of the brain (or “intrinsic connectivity”), and studied the changes of this value between off and on periods.

[3] = system: patient who suffered from almost complete cortical blindness following a bilateral occipital stroke; test: 18F-FDG PET-scan brain metabolism, on vs off periods
[4] = system: patient who suffered from almost complete cortical blindness following a bilateral occipital stroke; test: General neurological examination; details: either off or on Mepivacaine
Description: Apart from the patient's visual status, […] general neurological examination was normal, either off or on Mepivacaine. They had no sensory or motor impairment, no abnormalities of the cranial nerves, no cognitive deficit (MMSE=29/30, FAB 16/18, Five Words Test 10/10). There was no psychiatric symptoms, except for a depressive mood whenever the patient was off medication and virtually blind.

[5] = system: patient who suffered from almost complete cortical blindness following a bilateral occipital stroke; test: Neurovisual evaluation (BORB and other tests) during on periods
Description: As shown in the table below, during on periods, all tests involving visual perception were normal, except for a mild deficit in the Facial recognition test, with no discernible impairment of face perception in everyday life.

[6] = system: patient who suffered from almost complete cortical blindness following a bilateral occipital stroke; test: Clinical assessment of vision (visual field by confrontation), on vs off periods
Description: In 2010, a patient underwent surgery for the removal of a cervical herniated intervertebral disc (C6-C7). Immediately following surgery, they suffered from a dissection of their right vertebral artery, resulting in bilateral occipital and right cerebellar infarcts. They presented initially with almost complete cortical blindness, left hemiparesis, gait instability, mild swallowing difficulties. Visual perception improved in a small peripheral part of their right visual hemifield, while all other symptoms recovered fully.
The inverse phenomenon took place, over about 1 minute, during the transition from on to off periods.

With `Cc1cccc(C)c1NC(=O)C1CCCCN1C` (stereo not shown) [Mepivacaine, I-methyl-2′,6′-pipecoloxylidide] the “vision in the left superior quadrant” value ([1]; on period / under Mepivacaine) was “recovered in a small paramedial island in the left superior quadrant; also recorded: extends to part of the left superior quadrant”, the “vision in the right hemifield (HVF)” value ([1]; on period, FIG. 2) was “vision returned to normal in the whole right hemifield, except for a small superior paracentral island” and the “island of right visual field corresponding to right occipital infarct” value ([1]; under Mepivacaine) was “not improved”. The “functional connectivity of right-hemispheric calcarine region (control analysis)” value [2] was “no significant differences between on and off periods”, the “functional connectivity of left calcarine cortex with bilateral frontoparietal regions” value ([2]; FIG. 4) was “increase in connectivity” and the “functional connectivity of left calcarine cortex with mesial and lateral regions (default-mode network)” value ([2]; FIG. 4) was “decrease in correlation”. For the same molecule, the “intrinsic connectivity of bilateral lateral occipital cortex with the rest of the brain” value ([2]; FIG. 5) was “increased its average functional connectivity with the rest of the brain”, the “metabolism in the severely lesioned right mesial occipital cortex” value ([3]; on and off periods) was “severe and constant hypometabolism” and the “metabolism in the intact left occipital and temporal cortex” value ([3]; on vs off periods, FIG. 6) was “significant increase in metabolism”. The “general neurological examination (apart from visual status)” value [4] was “normal”, the “BORB TEST 1: Copying, score” value [5] was 9/9 and the “BORB TEST 2: Length Match Task, score” value [5] was 26/30. For the same molecule, the “BORB TEST 3: Size Match Task, score” value [5] was 28/30, the “BORB TEST 4: Orientation Match Task, score” value [5] was 25/30 and the “BORB TEST 5: Position of Gap Match Task, score” value [5] was 37/40. For the same molecule, the “BORB TEST 7: Minimal Feature View Test, score” value [5] was 25/25, the “BORB TEST 8: Foreshortened View Task, score” value [5] was 25/25 and the “BORB TEST 9: Drawing from Memory, score” value [5] was 6/6. For the same molecule, the “BORB TEST 10: Object Decision Task, score” value [5] was 26/32, the “BORB TEST 11: Function Match Task, score” value [5] was 31/32 and the “BORB TEST 12: Associative Match Task, score” value [5] was 29/30. The “Benton's Judgment of Line Orientation, score” value [5] was 14/15, the “Block design test (WAIS-IV), score” value [5] was 53/66 and the “Facial recognition test (Benton, 1963), score” value [5] was 38/54. For the same molecule, the “Facial recognition test, in words” value [5] was “mild deficit”, the “Hooper Test (Richardson and Marattoli, 1996), score” value [5] was 27/30 and the “Matrix reasoning test (WAIS-IV), score” value [5] was 22/26. For the same molecule, the “OD 80 picture naming test (Deloche and Hannequin, 1996), score” value [5] was 80/80, the “all tests involving visual perception” value [5] was “normal” and the “Block design test (WAIS-IV), NS” value ([5]; NS) was 13. For the same molecule, the “Matrix reasoning test (WAIS-IV), NS” value ([5]; NS) was 14, the “BORB TEST 2: Length Match Task, z” value ([5]; z score) was 0.56 and the “BORB TEST 3: Size Match Task, z” value ([5]; z score) was 0.29. The “BORB TEST 4: Orientation Match Task, z” value ([5]; z score) was 0.08, the “BORB TEST 5: Position of Gap Match Task, z” value ([5]; z score) was 0.48 and the “BORB TEST 7: Minimal Feature View Test, z” value ([5]; z score) was 0.85. The “BORB TEST 8: Foreshortened View Task, z” value ([5]; z score) was 1.31, the “BORB TEST 10: Object Decision Task, z” value ([5]; z score) was 0.45 and the “BORB TEST 11: Function Match Task, z” value ([5]; z score) was 0.45. For the same molecule, the “BORB TEST 12: Associative Match Task, z” value ([5]; z score) was 0.63, the “Hooper Test (Richardson and Marattoli, 1996), z” value ([5]; z score) was 1.30 and the “vision in the left hemifield (confrontation)” value ([6]; during on periods) was “dense hemianopia persisted”. The “vision in the right hemifield (confrontation)” value ([6]; during on periods) was “vision returned to normal in the right hemifield”, the “duration of transition from off to on periods (widening of spared vision to whole right hemifield)” value ([6]; patient description) was “over a matter of seconds” and the “duration of transition from on to off periods” value ([6]; patient description) was “about 1 minute”. The “visual ability of the patient” value ([6]; pursuant administration, single patient) was “improvement of visual ability”.
